Results from patent US10329304B2, “Compounds and methods for inhibition of hedgehog signaling and phosphodiesterase” (Vanderbilt University, priority 2014, dated 2019).
Like-named read-outs stand apart in the source and are kept apart here.

Columns and labels:
PDE4D3 = biological target: T1, PDE4D3 (Homo sapiens, UniProt Q08499); assay: In vitro PDE assay; type: biochemical; details: Table 9A
T1 construct: purchased BPS Biosciences (San Diego, Calif.); kinetic studies by Millipore (St. Louis, Mo.)
Procedure: (§1) In vitro PDE profiling and dose-response assays were performed by BPS Biosciences (San Diego, Calif.). Kinetic Mechanism of inhibition studies were conducted by Millipore (St. Louis, Mo.). In brief, the PDE assay measures fluorescent polarization of FAM-AMP as FAM-cAMP is converted to FAM-AMP by PDE), the binding agent.
(§2) A series of dilutions of the test compound were prepared with 10% DMSO in assay buffer and 5 μl of the dilution was added to a 50 μl reaction so that the final concentration of DMSO is 1% in all of reactions. All of the PDE enzymatic reactions were conducted in duplicate at room temperature for 60 minutes in a 50 μl mixture containing PDE assay buffer (10 mM Tris-HCl, pH7.4, 10 mM MaCl2, 0.05% Tween 20), 100 nM FAM-cAMP, a PDE enzyme and a test compound.
(§3) After the enzymatic reaction, 100 μl of a binding solution (1:100 dilution of the binding agent, which contains the nano beads that recognize FAM-AMP, with the binding agent diluent) was added to each reaction and the reaction was performed at room temperature for 60 minutes. Fluorescence intensity was measured at an excitation of 485 nm and an emission of 528 nm using a Tecan Infinite M1000 microplate reader. Assays done by Millipore were conducted similarly with changes noted below: […]

PDE4D2 = biological target: T2, PDE4D2 (Homo sapiens, UniProt Q08499); assay: In vitro PDE assay; type: biochemical; details: Table 9A
T2 construct: purchased BPS Biosciences (San Diego, Calif.)
Procedure: as §1, §2, §3

[1] = system: Hedgehog signaling (TM3-Gli-Luc); assay: TM3-Gli-Luc luciferase reporter assay stimulated with 20 nM SAG; type: cell-based
In short: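 TM3-Gli-Luc cells on 0.1% gelatin in DMEM/F12 with 2.5% FBS, treated 48 h with compound plus 20 nM SAG. Steady-Glo luminescence normalized to CellTiter-Glo viability, DMSO-only (no SAG) background subtracted, percent of SAG control. EC50 averaged from ≥2 independent days ±SEM.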

[2] = Lipophilic efficiency (LipE = pEC50 − cLogP) and cLogP
Procedure: Therefore, we prioritized phenotypic analog evaluation in the Gli-responsive luciferase reporter line TM3-Gli-Luc stimulated with 20 nM Smo agonist (SAG) while concurrently monitoring non-specific cellular toxicity. Additionally, lipophilic efficiency (LipE), a concurrent readout of a compound's potency (pEC50) and lipophilicity (cLogP) derived by subtracting the latter from the former, was utilized to optimize solubility properties (Table 12B), allowing for straightforward tracking of compounds with improvements in both parameters.

PDE4D = PDE4D (Homo sapiens, UniProt Q08499); assay: PDE4 inhibition assay (PDE4D IC50); type: biochemical; details: mean ± SEM, normalized to DMSO; read-out: PDE4D IC50
Procedure: as §1, §2
After the enzymatic reaction, 100 μl of a binding solution (1:100 dilution of the binding agent, which contains the nano beads that recognize FAM-AMP, with the binding agent diluent) was added to each reaction and the reaction was performed at room temperature for 60 minutes. Fluorescence intensity was measured at an excitation of 485 nm and an emission of 528 nm using a Tecan Infinite M1000 microplate reader. Assays done by Millipore were conducted similarly with changes noted below:
Hedgehog signaling inhibition and PDE4 inhibition of various compounds disclosed herein was assayed as described herein above.

Gli1 mRNA = assay: Hh % Inh.: SAG-induced Gli1 expression in C3H10T½ cells (qPCR); type: cell-based; details: Mus musculus, C3H 10T1/2, SAG-induced (100 nM), 24 hours; for inhibition at 1 µM: 1 pM [sic], read-out: C3H10T1/2 qPCR, Gh1 mRNA % Inh., 1 pM; for inhibition at 10 µM: 10 pM [sic], read-out: C3H10T1/2 qPCR, Gh1 mRNA % Inh., 10 pM
Procedure: Compounds are dosed from 10 mM DMSO stock solutions, and mRNA is isolated after 24 hours of compound treatment. mRNA is reverse transcribed to produce cDNA which is quantified by quantitative polymerase chain reaction (qPCR) in triplicate and levels are normalized to GAPDH levels. Data is presented as percent inhibition compared to positive control (SAG).

[3] = Table 9A, read-out: TM3 G8 Luciferase EC 50

T1 sequence (Q08499 1-673 isoform Q08499-2): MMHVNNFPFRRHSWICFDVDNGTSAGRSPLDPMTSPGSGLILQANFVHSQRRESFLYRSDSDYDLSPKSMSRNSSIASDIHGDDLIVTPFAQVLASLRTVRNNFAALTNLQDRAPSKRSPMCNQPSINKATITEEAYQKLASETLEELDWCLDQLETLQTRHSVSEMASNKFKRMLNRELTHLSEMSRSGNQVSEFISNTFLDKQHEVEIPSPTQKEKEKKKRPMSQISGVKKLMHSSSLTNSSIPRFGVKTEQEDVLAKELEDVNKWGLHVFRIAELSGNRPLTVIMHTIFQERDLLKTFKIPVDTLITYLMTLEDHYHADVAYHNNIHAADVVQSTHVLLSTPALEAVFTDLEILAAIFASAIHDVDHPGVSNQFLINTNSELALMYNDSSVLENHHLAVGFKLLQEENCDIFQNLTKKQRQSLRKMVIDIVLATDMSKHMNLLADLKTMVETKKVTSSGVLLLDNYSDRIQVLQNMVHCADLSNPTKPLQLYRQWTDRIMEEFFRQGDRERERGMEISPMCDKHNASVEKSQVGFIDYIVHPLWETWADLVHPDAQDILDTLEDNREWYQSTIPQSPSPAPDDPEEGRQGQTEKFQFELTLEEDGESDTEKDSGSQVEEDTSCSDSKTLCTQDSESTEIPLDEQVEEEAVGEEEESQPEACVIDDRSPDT
T2 sequence (Q08499 303-809): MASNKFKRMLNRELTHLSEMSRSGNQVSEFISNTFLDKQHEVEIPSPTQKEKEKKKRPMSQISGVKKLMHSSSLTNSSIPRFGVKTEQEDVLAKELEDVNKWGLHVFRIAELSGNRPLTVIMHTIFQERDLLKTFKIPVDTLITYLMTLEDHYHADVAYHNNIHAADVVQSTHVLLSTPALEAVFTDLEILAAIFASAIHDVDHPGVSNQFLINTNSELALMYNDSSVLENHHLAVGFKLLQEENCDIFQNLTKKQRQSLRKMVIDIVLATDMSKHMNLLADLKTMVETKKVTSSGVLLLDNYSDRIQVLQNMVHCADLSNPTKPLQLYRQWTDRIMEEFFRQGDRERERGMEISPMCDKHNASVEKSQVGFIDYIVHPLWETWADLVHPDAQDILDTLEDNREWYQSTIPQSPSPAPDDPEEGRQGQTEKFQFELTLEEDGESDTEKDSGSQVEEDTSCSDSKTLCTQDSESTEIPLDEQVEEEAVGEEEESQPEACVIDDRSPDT
PDE4D, sequence (Q08499 whole entry): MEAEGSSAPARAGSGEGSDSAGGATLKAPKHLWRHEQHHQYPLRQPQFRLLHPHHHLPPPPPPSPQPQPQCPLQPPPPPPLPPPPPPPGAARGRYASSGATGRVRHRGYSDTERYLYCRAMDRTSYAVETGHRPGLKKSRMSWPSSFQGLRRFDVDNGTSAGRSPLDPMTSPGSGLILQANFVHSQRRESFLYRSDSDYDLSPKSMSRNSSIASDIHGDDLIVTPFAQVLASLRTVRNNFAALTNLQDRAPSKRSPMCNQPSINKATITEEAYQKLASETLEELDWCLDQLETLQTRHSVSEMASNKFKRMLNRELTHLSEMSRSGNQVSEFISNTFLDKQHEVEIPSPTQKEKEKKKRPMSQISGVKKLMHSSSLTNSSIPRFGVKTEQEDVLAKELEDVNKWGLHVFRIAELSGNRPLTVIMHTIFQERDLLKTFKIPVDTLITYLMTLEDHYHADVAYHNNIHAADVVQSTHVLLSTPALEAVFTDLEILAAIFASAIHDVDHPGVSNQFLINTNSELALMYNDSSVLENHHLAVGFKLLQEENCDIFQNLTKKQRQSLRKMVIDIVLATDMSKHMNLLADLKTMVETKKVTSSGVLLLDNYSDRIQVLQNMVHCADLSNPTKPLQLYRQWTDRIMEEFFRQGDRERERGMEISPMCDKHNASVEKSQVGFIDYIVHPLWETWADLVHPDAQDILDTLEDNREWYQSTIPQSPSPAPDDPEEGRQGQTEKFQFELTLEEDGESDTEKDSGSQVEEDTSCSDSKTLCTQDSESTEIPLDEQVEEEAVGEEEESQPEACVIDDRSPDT

Compound | IC50 (PDE4D3) [µM] | IC50 (PDE4D2) [µM] | EC50 [1, 3] [µM] | other results
C=CCn1c(SCC(=O)c2ccccn2)nc2sc3c(c2c1=O)CCCC3 [Formula 1KL1] | 62 | 25 |  | 
C=CCn1c(SCC(=O)N2Cc3ccccc3C2)nc2sc3c(c2c1=O)CCCC3 [Formula 1KYW] | > 100 | > 100 |  | 
C=CCn1c(SCC(=O)N2CCOCC2)nc2sc3c(c2c1=O)CCCC3 [Formula 1L4R] | > 100 | > 100 | 2.82 | 
C=C(C)Cn1c(SCC(=O)c2cccs2)nc2sc3c(c2c1=O)CCCC3 [Formula 3] |  |  |  | LipE ([2]; Calculated as pEC50 - cLogP, Molinspiration Cheminformatics): 0.73; LipE ([2]; pEC50 - cLogP, Table 14): 0.73; IC50 (PDE4D): 0.38 ± 0.02 µM; EC50 ([1]; 20 nM SAG, mean ± standard error of the mean, read-out: TM3-Gli-Luc EC50): 1.34 ± 0.002 µM; EC50 ([1]; TM3-Gli-Luc reporter line stimulated with 20 nM SAG, mean ± SEM, Table 14, read-out: TM3-Gli-Luc EC50): 1.34 ± 0.002 µM

More lines, main results first:

IC50 (PDE4D3) [µM] | IC50 (PDE4D2) [µM] | EC50 [1, 3] [µM] | Compound | other results
1.7 | 1.2 |  | C=C(C)Cn1c(SCC(=O)N2CCCC[C@H]2C)nc2sc3c(c2c1=O)CCCC3 [Formula 1ANQ] | TM3 G8 Luciferase % Inh., 0.5 pM ([1]; 0.5 pM as printed): 17.4%
8.2 | 5 |  | C=CCn1c(SCC(=O)c2ccncc2)nc2sc3c(c2c1=O)CCCC3 [Formula 1KMH] | 
11 | 7.6 |  | C=CCn1c(SCC(=O)N2CCCC[C@H]2C)nc2sc3c(c2c1=O)CCCC3 [Formula 1KMR] | 
14 | 45 | 12.6 | O=C(CSc1nc2sc3c(c2c(=O)n1-c1ccccc1)CCCC3)c1cccs1 [JEH-3-058-1] | inhibition at 1 µM (Gli1 mRNA): 12%; inhibition at 10 µM (Gli1 mRNA): 85.3%
4.1 | 3.2 | 18.2 | C=C(C)Cn1c(SCC(=O)N2CCOCC2)nc2sc3c(c2c1=O)CCCC3 [JEH-3-079] | inhibition at 1 µM (Gli1 mRNA): 25.1%; inhibition at 10 µM (Gli1 mRNA): 50.8%
